{"source": "ChEMBL document CHEMBL1201862", "about": "“PubChem BioAssay data set” (2004)", "key": {"[1]": {"target": "Paired box protein Pax-8 (Homo sapiens, UniProt Q06710)", "sequence (Q06710 whole entry)": "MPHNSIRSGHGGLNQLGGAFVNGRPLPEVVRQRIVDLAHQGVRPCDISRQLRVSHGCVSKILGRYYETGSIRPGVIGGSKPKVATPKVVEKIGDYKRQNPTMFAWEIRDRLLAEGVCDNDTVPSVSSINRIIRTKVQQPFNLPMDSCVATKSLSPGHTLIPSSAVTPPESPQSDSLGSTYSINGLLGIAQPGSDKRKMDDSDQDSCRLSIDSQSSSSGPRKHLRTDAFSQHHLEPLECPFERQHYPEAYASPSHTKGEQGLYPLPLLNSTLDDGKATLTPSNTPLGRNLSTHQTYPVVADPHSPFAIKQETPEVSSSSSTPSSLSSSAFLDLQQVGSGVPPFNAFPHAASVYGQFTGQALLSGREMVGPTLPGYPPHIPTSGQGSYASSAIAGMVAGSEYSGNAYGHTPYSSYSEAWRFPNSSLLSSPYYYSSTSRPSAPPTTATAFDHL", "test": "inhibitors of PAX8-driven TPO luciferase reporter, dose response, RMG-I cells, cherry-pick (AID 687027);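 also: luciferase reporter driven by Pax8 target thyroperoxidase promoter measured by SteadyGlo luminescence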", "format": "functional, cell-based"}, "[2]": {"system": "HEK293", "test": "cells", "details": "Homo sapiens"}, "[3]": {"system": "HEK293", "test": "cells", "details": "Homo sapiens", "remark": "listed apart in the source"}, "[4]": {"target": "Sphingosine 1-phosphate receptor 5 (Homo sapiens, UniProt Q9H228)", "test": "Late stage counterscreen assay for S1P4 antagonists: Fluorescence dose response cell-based screening assay for antagonists of the Sphingosine 1-Phosphate Receptor 5 (S1P5). [Related pubchem assays (depositor defined):AID1510, AID1524, AID1692, AID1853, AID2332, AID489009, AID489017]", "format": "functional"}, "[5]": {"target": "Sphingosine 1-phosphate receptor 3 (Homo sapiens, UniProt Q99500)", "test": "Late stage counterscreen assay for S1P4 antagonists: Fluorescence dose response cell-based screening assay for antagonists of the Sphingosine 1-Phosphate Receptor 3 (S1P3). [Related pubchem assays (depositor defined):AID1510, AID1524, AID1692, AID1853, AID2332, AID489009, AID489017]", "format": "functional"}, "[6]": {"target": "Sphingosine 1-phosphate receptor 1 (Homo sapiens, UniProt P21453)", "sequence (P21453 whole entry)": "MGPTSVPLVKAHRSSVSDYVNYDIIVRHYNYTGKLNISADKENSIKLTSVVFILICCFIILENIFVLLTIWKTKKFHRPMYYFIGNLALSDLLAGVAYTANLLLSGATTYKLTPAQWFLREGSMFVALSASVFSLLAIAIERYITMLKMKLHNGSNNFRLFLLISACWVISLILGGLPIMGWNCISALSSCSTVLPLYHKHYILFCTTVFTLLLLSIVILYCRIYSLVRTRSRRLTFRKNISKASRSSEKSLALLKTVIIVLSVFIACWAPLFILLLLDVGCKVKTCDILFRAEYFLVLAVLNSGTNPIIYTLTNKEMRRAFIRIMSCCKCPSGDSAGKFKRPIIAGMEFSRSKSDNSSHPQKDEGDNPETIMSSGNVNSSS", "test": "Late stage counterscreen assay for S1P4 antagonists: Fluorescence dose response cell-based screening assay for antagonists of the Sphingosine 1-Phosphate Receptor 1 (S1P1). [Related pubchem assays (depositor defined):AID1510, AID1524, AID1692, AID1853, AID2332, AID489009, AID489017]", "format": "functional"}, "[7]": {"target": "Sphingosine 1-phosphate receptor 2 (Homo sapiens, UniProt O95136)", "test": "Late stage counterscreen assay for S1P4 antagonists: Fluorescence dose response cell-based screening assay for antagonists of the Sphingosine 1-Phosphate Receptor 2 (S1P2). [Related pubchem assays (depositor defined):AID1510, AID1524, AID1692, AID1853, AID2332, AID489009, AID489017]", "format": "functional"}, "[8]": {"target": "Intestinal-type alkaline phosphatase (Mus musculus, UniProt P24822)", "test": "PubChem AID 488875", "format": "functional"}, "[9]": {"target": "T1, Intestinal-type alkaline phosphatase (Homo sapiens, UniProt P09923)", "T1 sequence (P09923 whole entry)": "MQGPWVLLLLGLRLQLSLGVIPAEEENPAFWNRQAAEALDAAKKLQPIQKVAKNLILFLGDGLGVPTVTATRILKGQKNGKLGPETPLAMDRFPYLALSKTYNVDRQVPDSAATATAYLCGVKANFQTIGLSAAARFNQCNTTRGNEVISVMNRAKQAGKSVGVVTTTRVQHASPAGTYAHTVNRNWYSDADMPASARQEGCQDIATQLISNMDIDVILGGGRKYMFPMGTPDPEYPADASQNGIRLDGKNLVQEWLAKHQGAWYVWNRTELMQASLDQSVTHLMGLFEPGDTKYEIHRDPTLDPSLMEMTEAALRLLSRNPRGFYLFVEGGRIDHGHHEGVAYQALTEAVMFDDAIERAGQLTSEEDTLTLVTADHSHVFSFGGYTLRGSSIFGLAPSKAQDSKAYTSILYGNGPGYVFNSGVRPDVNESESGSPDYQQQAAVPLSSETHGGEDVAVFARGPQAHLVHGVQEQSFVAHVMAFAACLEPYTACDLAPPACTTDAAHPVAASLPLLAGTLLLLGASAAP", "test": "human intestinal alkaline phosphatase activators, dose response, biochemical, luminescence, uHTS hits (AID 463120)", "format": "functional"}, "[10]": {"target": "T1, Intestinal-type alkaline phosphatase", "test": "human IAP activators, dose response, biochemical, luminescent, uHTS hits, set 2 (AID 488817)", "format": "functional"}, "[11]": {"target": "T2, Alkaline phosphatase, tissue-nonspecific isozyme (Homo sapiens, UniProt P05186)", "T2 sequence (P05186 whole entry)": "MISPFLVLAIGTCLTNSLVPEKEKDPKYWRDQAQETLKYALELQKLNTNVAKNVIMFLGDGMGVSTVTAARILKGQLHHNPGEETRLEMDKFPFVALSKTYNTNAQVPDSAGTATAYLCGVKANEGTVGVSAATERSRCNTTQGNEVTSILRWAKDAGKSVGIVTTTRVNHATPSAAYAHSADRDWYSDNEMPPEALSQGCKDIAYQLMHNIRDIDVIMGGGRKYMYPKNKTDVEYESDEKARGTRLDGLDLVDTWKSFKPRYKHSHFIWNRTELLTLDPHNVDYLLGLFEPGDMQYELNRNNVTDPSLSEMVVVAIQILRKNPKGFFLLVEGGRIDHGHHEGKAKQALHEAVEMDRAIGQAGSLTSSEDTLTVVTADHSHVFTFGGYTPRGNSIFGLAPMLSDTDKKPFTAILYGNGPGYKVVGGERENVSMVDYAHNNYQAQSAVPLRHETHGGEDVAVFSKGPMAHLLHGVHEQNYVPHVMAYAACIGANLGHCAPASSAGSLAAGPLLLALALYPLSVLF", "test": "TNAP enzyme activators, dose response, selectivity assay for human IAP activator project, biochemical, TNAP isozyme, human IAP uHTS hits (AID 488886);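 also: potency of compounds raising TNAP activity as a selectivity check on IAP activators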", "format": "functional"}, "[12]": {"target": "Lysine-specific demethylase 4C (Homo sapiens, UniProt Q9H3R0)", "sequence (Q9H3R0 whole entry)": "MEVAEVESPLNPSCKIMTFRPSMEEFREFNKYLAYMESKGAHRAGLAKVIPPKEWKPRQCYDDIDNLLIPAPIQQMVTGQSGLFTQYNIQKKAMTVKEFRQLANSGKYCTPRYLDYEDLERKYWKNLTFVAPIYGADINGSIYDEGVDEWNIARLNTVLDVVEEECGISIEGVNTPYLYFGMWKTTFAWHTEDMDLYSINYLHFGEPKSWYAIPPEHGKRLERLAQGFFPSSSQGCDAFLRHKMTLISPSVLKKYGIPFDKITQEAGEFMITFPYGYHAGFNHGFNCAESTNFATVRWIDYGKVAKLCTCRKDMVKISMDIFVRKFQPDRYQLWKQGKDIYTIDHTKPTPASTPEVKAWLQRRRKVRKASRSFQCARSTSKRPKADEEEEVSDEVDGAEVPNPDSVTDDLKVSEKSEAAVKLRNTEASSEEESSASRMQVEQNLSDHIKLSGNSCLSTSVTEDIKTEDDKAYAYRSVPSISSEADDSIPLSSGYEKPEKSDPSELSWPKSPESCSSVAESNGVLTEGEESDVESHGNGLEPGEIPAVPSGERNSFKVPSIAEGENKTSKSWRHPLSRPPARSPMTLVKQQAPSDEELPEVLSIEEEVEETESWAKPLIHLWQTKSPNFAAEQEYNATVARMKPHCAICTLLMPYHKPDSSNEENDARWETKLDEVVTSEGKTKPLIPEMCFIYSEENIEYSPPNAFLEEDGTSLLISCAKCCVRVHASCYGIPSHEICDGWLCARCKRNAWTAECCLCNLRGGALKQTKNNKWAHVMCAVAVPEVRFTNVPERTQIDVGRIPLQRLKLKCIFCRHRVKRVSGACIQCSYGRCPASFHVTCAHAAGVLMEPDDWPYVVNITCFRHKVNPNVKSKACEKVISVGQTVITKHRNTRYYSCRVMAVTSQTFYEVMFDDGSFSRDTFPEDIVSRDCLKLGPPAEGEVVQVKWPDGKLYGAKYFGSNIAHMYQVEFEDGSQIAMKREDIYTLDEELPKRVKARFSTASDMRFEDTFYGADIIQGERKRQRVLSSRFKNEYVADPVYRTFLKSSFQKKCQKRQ", "test": "GASC-1 (JMJD2C) histone demethylase inhibitors, dose response, biochemical, DELFIA europium, cherry-picked samples (AID 488835)", "format": "functional"}, "[13]": {"target": "Voltage-dependent T-type calcium channel subunit alpha-1H (Homo sapiens, UniProt O95180)", "sequence (O95180 whole entry)": "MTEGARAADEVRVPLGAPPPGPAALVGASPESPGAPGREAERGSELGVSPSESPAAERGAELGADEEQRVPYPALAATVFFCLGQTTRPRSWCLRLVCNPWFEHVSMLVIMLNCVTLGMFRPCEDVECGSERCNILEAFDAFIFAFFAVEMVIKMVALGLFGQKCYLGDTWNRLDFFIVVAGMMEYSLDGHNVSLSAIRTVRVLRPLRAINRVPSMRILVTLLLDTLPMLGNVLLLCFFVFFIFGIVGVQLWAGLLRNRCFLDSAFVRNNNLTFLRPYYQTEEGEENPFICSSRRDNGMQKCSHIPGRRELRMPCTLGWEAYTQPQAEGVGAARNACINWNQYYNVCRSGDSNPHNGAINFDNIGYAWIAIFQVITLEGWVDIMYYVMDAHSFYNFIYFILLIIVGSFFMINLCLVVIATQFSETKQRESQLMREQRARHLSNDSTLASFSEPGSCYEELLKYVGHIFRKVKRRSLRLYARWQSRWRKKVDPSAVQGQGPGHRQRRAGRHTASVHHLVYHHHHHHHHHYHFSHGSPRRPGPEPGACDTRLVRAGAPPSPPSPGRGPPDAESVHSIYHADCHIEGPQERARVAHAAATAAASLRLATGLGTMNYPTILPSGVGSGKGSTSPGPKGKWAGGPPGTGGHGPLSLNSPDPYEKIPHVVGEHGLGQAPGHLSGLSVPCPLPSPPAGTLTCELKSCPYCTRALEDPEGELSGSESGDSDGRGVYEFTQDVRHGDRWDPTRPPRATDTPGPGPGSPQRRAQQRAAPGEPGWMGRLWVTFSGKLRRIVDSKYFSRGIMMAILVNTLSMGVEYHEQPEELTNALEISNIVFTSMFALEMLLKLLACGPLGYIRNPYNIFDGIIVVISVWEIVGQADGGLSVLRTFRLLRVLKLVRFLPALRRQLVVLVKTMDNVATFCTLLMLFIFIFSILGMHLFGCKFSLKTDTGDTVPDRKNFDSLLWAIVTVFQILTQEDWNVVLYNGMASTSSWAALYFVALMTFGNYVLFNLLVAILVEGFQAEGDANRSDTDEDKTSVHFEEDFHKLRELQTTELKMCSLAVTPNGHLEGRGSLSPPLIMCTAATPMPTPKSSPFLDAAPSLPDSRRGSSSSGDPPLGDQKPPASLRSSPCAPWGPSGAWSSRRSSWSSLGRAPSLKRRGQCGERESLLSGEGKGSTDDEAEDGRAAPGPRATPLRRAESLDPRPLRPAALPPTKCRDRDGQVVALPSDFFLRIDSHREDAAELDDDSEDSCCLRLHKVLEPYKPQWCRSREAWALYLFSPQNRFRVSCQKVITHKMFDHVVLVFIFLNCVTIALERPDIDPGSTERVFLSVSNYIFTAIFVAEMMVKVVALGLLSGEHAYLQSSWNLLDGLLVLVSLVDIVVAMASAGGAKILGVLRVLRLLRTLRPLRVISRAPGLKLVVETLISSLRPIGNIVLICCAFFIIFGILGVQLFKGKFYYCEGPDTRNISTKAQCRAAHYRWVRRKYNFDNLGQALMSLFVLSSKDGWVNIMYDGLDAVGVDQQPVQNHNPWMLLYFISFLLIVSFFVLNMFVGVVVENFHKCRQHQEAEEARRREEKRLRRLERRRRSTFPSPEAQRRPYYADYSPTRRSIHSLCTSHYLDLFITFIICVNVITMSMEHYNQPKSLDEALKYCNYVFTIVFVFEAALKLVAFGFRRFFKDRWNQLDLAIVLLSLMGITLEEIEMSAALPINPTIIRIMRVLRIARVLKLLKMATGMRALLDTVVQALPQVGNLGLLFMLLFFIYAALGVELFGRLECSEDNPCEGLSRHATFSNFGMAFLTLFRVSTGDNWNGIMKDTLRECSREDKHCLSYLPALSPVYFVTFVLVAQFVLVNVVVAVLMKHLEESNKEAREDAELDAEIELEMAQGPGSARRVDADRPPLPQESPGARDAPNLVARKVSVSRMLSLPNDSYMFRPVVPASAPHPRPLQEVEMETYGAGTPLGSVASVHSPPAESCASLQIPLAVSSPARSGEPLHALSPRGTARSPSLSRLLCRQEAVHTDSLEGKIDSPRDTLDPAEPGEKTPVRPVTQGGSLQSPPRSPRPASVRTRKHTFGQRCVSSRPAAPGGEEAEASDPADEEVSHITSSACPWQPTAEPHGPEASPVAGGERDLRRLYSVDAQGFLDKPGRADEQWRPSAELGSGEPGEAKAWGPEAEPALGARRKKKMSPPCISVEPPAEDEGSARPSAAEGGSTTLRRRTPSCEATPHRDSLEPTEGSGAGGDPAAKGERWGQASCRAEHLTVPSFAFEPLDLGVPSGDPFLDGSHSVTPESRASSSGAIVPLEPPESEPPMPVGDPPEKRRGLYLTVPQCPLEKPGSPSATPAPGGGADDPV", "test": "Cav3.2 T-type channel inhibitors, synthesized analogs, SAR follow-up, cell-based, synthetic library set 2, HEK293 HH8, Fluo-4 (AID 493023)", "format": "functional"}, "[14]": {"system": "Streptococcus sp. 'group A'", "test": "growth inhibition of control SK(-) GAS strain, dose response, counter-screen for streptokinase expression inhibitor project, luminescence, kanamycin, BacTiterGlo, confirmation (AID 1900)", "format": "functional, organism-based"}, "[15]": {"target": "T3, Streptokinase A (Streptococcus pyogenes serotype M1, UniProt P10520)", "T3 sequence (P10520 whole entry)": "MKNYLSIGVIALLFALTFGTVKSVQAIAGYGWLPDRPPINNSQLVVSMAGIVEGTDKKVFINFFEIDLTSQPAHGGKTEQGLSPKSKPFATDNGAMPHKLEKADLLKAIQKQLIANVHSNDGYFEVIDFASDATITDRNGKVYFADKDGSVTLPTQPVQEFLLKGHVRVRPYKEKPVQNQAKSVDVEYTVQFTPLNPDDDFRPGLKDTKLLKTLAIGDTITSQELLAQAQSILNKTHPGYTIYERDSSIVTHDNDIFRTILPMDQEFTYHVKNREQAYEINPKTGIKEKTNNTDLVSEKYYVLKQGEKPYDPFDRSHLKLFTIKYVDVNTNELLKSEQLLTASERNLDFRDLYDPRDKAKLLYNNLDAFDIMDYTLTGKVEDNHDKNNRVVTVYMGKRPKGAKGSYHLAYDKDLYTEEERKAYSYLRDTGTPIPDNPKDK", "test": "S. pyogenes streptokinase expression inhibitors, potency, dose response, plasminogen activation absorbance, OD405 (AID 1914);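 also: secreted streptokinase activity via plasminogen activation per viability signal from cell pellet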", "format": "functional, Streptococcus pyogenes M1 GAS"}, "[16]": {"system": "Streptococcus", "test": "Group A Streptococcus viability loss, dose response, counter-screen for streptokinase expression inhibitor project, luminescence, BacTiterGlo (AID 1915);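 also: potency for reduction of bacterial viability or growth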", "format": "functional, organism-based"}, "[17]": {"target": "Heat shock protein HSP 90-alpha (Homo sapiens, UniProt P07900)", "format": "functional, organism-based"}, "[18]": {"target": "Genome polyprotein (dengue virus type 2, UniProt P29990)", "test": "Dengue-2 NS5 methyltransferase inhibitors, primary screen, biochemical, confirmation dose response (AID 588689)", "format": "functional"}, "[19]": {"target": "DNA damage-inducible transcript 3 protein (Mus musculus, UniProt P35639)", "sequence (P35639 whole entry)": "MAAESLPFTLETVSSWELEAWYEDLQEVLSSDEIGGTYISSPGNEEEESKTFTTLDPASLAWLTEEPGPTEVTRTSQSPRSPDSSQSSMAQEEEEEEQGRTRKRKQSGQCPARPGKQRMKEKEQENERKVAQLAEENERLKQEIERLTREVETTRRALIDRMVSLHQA", "format": "functional, Cricetulus griseus"}, "[20]": {"target": "T4, X-box-binding protein 1 (Homo sapiens, UniProt P17861)", "T4 sequence (P17861 whole entry)": "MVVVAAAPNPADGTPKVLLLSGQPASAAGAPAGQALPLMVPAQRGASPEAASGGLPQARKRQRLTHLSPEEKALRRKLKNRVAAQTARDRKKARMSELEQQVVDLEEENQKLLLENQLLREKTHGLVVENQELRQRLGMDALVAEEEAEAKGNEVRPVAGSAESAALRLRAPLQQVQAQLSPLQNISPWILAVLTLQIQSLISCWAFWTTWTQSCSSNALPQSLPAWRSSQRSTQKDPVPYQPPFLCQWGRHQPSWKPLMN", "format": "functional, Cricetulus griseus"}}, "note": "Activity calls are given as the source filed them.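 For Absolute IC50 (XBP1) in this document: confirmatory dose-response counter-screen serving a CHOP assay.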"}
{"smiles": "CCOC(=O)c1c(-c2ccc(F)cc2)csc1NC(=O)CN1C(=O)NC2(CCCCC2C)C1=O", "note": "(stereo not drawn)", "values": [{"measurement": "AC50", "setting": "[1]", "value": "4.11 µM (active)"}, {"measurement": "EC50", "setting": "[2]", "value": "> 59.6 µM (inactive)"}, {"measurement": "EC50", "setting": "[3]", "value": "> 59.6 µM (inactive)"}]}
{"smiles": "CC(C)c1cccc(C(C)C)c1NC(=O)c1ccc(-c2cc(Cl)ccc2Cl)o1", "values": [{"measurement": "IC50", "setting": "[4]", "value": "12.7 µM (inactive)"}, {"measurement": "IC50", "setting": "[5]", "value": "> 25 µM (inactive)"}, {"measurement": "IC50", "setting": "[6]", "value": "> 25 µM (inactive)"}, {"measurement": "IC50", "setting": "[7]", "value": "> 25 µM (inactive)"}]}
{"smiles": "Cn1c(/C(C#N)=C(\\O)c2ccc(Br)s2)nc2ccccc21", "values": [{"measurement": "EC50", "setting": "[8]", "value": "> 100 µM (inactive)"}, {"measurement": "EC50", "setting": "[9]", "value": "77 µM (active)"}, {"measurement": "EC50", "setting": "[10]", "value": "60 µM (active)"}, {"measurement": "EC50", "setting": "[11]", "value": "45 µM (active)"}]}
{"smiles": "CC(C)CN(C(=O)c1ccc(N2CCCC2=O)cc1)c1c(N)n(Cc2ccccc2)c(=O)[nH]c1=O", "values": [{"measurement": "AC50", "setting": "[12]", "value": "> 60 µM (inactive)"}]}
{"smiles": "O=C(NC1CCC2CN(Cc3ccccc3)CC21)c1cc(Cl)cc(Cl)c1", "note": "(stereo not drawn)", "values": [{"measurement": "EC50", "setting": "[13]", "value": "4 µM (active)"}]}
{"smiles": "COC(=O)[C@@H]1[C@@H](C#N)C2(c3ccccc3-c3ccccc32)N(c2ccc(Cl)cc2)N1C#N", "values": [{"measurement": "EC50", "setting": "[14]", "value": "5.91 µM (active)"}, {"measurement": "EC50", "setting": "[15]", "value": "63.1 µM (active)"}, {"measurement": "EC50", "setting": "[16]", "value": "19 µM (active)"}, {"measurement": "AC50", "setting": "[17]", "value": "1.7 µM (active)"}, {"measurement": "IC50", "setting": "[18]", "value": "92.4 µM (active)"}, {"measurement": "EC50", "setting": "[2]", "value": "> 59.6 µM (inactive)"}, {"measurement": "EC50", "setting": "[3]", "value": "> 59.6 µM (inactive)"}]}
{"smiles": "CCCCC1=CC2=C(c3ccco3)C(=O)C(C)(OC(=O)c3ccc(OC)cc3)C(=O)C2=CN1Cc1ccccc1", "note": "(stereo not drawn)", "values": [{"measurement": "Absolute IC50 (CHOP)", "setting": "[19]", "value": 10, "unit": "µM"}, {"measurement": "Absolute IC50 (XBP1)", "setting": "[20]", "value": 10, "unit": "µM"}]}
{"smiles": "CN1C(=O)C(Cc2ccc(OCc3ccccc3)cc2)C(=O)N(C)C1=O", "values": [{"measurement": "AC50", "setting": "[12]", "value": "9.21 µM (active)"}]}
